The source of these data is PubChem BioAssay (NCI).

Structures are written as SMILES.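 Protocol summary: plate cells (96-well), add compound at 5 concentrations, incubate 48 h, interpolate endpoints linearly. GI50 marks 50% less growth. TGI is the concentration that stops growth completely.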 Where only a bound is given, the exact number is not on record here.

Some test systems named below: K-562 leukemia; A549 NSCLC; NCI/ADR-RES ovarian; COLO 205 colon; HS 578T breast; MCF7 breast; SK-MEL-28 melanoma; HT29 colon; A498 renal; HOP-62 NSCLC.
Holding throughout (experiment): inhibition of tumour cell growth, NCI panel, 48 h

As to `CCOC(=O)CC1C(COC(=O)NC)OC(n2cnc3c(NC(=O)Nc4ccccc4)ncnc32)C1O[Si](C)(C)C(C)(C)C` (stereo not given), the GI50 in the test on K-562 leukemia is 3.09 µM; with A549 NSCLC, 6.93 µM; in the test with NCI/ADR-RES ovarian it was 9.18 µM; with COLO 205 colon, 7.7 µM; in the test with HS 578T breast, 3.39 µM; in the test on MCF7 breast, 3.37 µM. Moreover, the GI50 was 7.77 µM in the test on SK-MEL-28 melanoma, 3.97 µM with HT29 colon, 4.65 µM with A498 renal and 14.7 µM in the test on HOP-62 NSCLC. Also, the TGI in the test on K-562 leukemia was more than 100 µM; in the test with A549 NSCLC, more than 100 µM; with NCI/ADR-RES ovarian, 30.6 µM; in the test with COLO 205 colon, 20.2 µM; in the test with HS 578T breast, 14.7 µM; with MCF7 breast it was 17.1 µM. Also, the TGI in the test on SK-MEL-28 melanoma is more than 100 µM; in the test with HT29 colon, 17.7 µM; in the test with A498 renal it was 21.4 µM; in the test on HOP-62 NSCLC it was 77.7 µM.
As for `CC(C)(C)CC(C)(C)NCc1cc(C(C)(C)C)cc(CNC(C)(C)CC(C)(C)C)c1O`, the GI50 in the test with K-562 leukemia was 2.2 µM; with A549 NSCLC, 3.97 µM; in the test on NCI/ADR-RES ovarian it was 2.81 µM; with COLO 205 colon, 1.41 µM; in the test with HS 578T breast, 3.22 µM; in the test on MCF7 breast, 3.12 µM. Besides, the GI50 in the test with SK-MEL-28 melanoma was 5.24 µM; in the test on HT29 colon it was 2.4 µM; with A498 renal, 2.53 µM; in the test on HOP-62 NSCLC, 4.69 µM. In addition, the TGI amounted to 9.45 µM with K-562 leukemia; 14.7 µM in the test with A549 NSCLC; 11.7 µM in the test with NCI/ADR-RES ovarian; 2.8 µM in the test with COLO 205 colon; 20.7 µM with HS 578T breast; 11.3 µM in the test with MCF7 breast. Also, the TGI with SK-MEL-28 melanoma amounted to 17.6 µM; in the test on HT29 colon, 9.7 µM; in the test on A498 renal, 11.3 µM; in the test on HOP-62 NSCLC, 17.9 µM.
With `COc1ccc2nc3cc([N+](=O)[O-])ccc3c(NCCCN(C)C)c2c1`, the GI50 is 0.0361 µM with K-562 leukemia; 0.278 µM with A549 NSCLC; 2.46 µM with NCI/ADR-RES ovarian; 0.221 µM in the test with COLO 205 colon; 0.372 µM in the test with HS 578T breast; 0.0304 µM in the test on MCF7 breast. Moreover, the GI50 in the test on SK-MEL-28 melanoma is 0.504 µM; in the test on HT29 colon, 0.0397 µM; in the test with A498 renal, 1.87 µM; in the test with HOP-62 NSCLC, 0.0315 µM. The TGI with K-562 leukemia was found to be 0.183 µM; with A549 NSCLC, 10.1 µM; in the test on NCI/ADR-RES ovarian, 14.2 µM; in the test on COLO 205 colon, 2.17 µM; in the test with HS 578T breast, 4.76 µM; in the test on MCF7 breast, 0.204 µM. Also, the TGI with SK-MEL-28 melanoma stood at 2.87 µM; in the test with HT29 colon it was 1.12 µM; in the test with A498 renal, 5.72 µM; in the test on HOP-62 NSCLC it was 0.202 µM.
In the case of `Cc1cccc(C)c1NC(=O)Nc1ccc(S(N)(=O)=O)cc1`, the TGI in the test with K-562 leukemia, in the test on A549 NSCLC, in the test with NCI/ADR-RES ovarian, in the test on COLO 205 colon, in the test on HS 578T breast and in the test with MCF7 breast was more than 100 µM in each case. Also, the TGI with SK-MEL-28 melanoma, in the test on HT29 colon, in the test on A498 renal and with HOP-62 NSCLC was more than 100 µM throughout.
As to `COc1ccccc1CNCCCN1C(=O)c2ccc3c4c(ccc(c24)C1=O)C(=O)N(CCCCNCCCN)C3=O`, the GI50 in the test with K-562 leukemia is 1.9 µM; in the test on A549 NSCLC, 1.58 µM; with NCI/ADR-RES ovarian, 5.98 µM; with COLO 205 colon it was 0.524 µM; in the test on HS 578T breast it was 2.27 µM; in the test with MCF7 breast, 0.472 µM. The GI50 was 1.59 µM with SK-MEL-28 melanoma, 0.95 µM with HT29 colon, 3.12 µM in the test with A498 renal and 2.93 µM with HOP-62 NSCLC. Also, the TGI in the test with K-562 leukemia came to 4.87 µM; with A549 NSCLC, 3.5 µM; in the test with NCI/ADR-RES ovarian, 34.2 µM; in the test with COLO 205 colon, 1.08 µM; in the test with HS 578T breast, 8.2 µM; in the test with MCF7 breast, 1.35 µM. Further, the TGI was determined as 3.55 µM in the test with SK-MEL-28 melanoma, 3.37 µM with HT29 colon, 12.8 µM with A498 renal and 10.4 µM with HOP-62 NSCLC.
Turning to `COc1cc(-c2nc(-c3nc4ccccc4[nH]3)cc3c2[nH]c2ccccc23)cc(OC)c1OC`, the GI50 was 4.33 µM in the test with K-562 leukemia; 3.2 µM in the test with A549 NSCLC; 3.59 µM with NCI/ADR-RES ovarian; 4.58 µM in the test with COLO 205 colon; 4.44 µM in the test with HS 578T breast; 4.11 µM with MCF7 breast. Also, the GI50 in the test with SK-MEL-28 melanoma is 6.89 µM; with HT29 colon, 6.87 µM; in the test with A498 renal it was 2.43 µM; with HOP-62 NSCLC, 5.87 µM. The TGI in the test with K-562 leukemia, in the test on A549 NSCLC, with NCI/ADR-RES ovarian, in the test with COLO 205 colon, in the test with HS 578T breast and with MCF7 breast was more than 100 µM in each case. Also, the TGI in the test on SK-MEL-28 melanoma, with HT29 colon, in the test with A498 renal and in the test with HOP-62 NSCLC was more than 100 µM in each case.
